Among the data in ChEMBL document CHEMBL3585311, “Computational design and chemometric QSAR modeling of Plasmodium falciparum carbonic anhydrase inhibitors” (Bioorg Med Chem Lett, 2014) are Ki values, retold here.

The assay is described as follows: Inhibition of Plasmodium falciparum recombinant carbonic anhydrase.
As to `CCc1c(Cl)ccc(NC(=O)NC(=S)Nc2ccc(S(N)(=O)=O)cc2)c1Cl`, the Ki – broadly, the equilibrium dissociation constant of an inhibitor or competing ligand from its target – was 464 nM.
Under `Cc1c(NC(=O)NC(=S)Nc2ccc(S(N)(=O)=O)cc2)cn2ncccc12` stands 433 nM; under `CC(C)(O)Nc1ccc(S(N)(=O)=O)cc1`, 2220 nM; under `NS(=O)(=O)c1ccc(NC(=O)c2cc3ccccc3oc2=O)cc1`, 5820 nM.
Under `CC(F)(F)Nc1ccc(S(N)(=O)=O)cc1` stands 740 nM; under `COc1ccc2oc(=O)cc(CC(=O)Nc3cccc(S(N)(=O)=O)c3)c2c1`, 4580 nM.
The figure for `NS(=O)(=O)c1ccccc1NC(=O)N(c1ccccc1)c1cccc(Cl)c1` is 1650 nM; for `NS(=O)(=O)c1nnc(NS(=O)(=O)c2c(F)c(F)c(F)c(F)c2F)s1` it is 2580 nM; for `COc1ccc2cncc(CC(=O)Nc3ccccc3S(N)(=O)=O)c2c1` it is 2660 nM.
On to `NS(=O)(=O)c1ccccc1NS(=O)(=O)c1c(F)c(F)c(F)c(F)c1F`, for which the Ki is 3060 nM.
Under `NS(=O)(=O)c1ccccc1NC(=O)N(c1ccccc1)c1ccc(F)cc1` stands 2260 nM; under `COc1ccc2oc(=O)cc(CC(=O)Nc3ccccc3S(N)(=O)=O)c2c1`, 1440 nM.
The figure for `Cn1nc(S(N)(=O)=O)s/c1=N/C(=O)c1c(F)c(F)c(F)c(F)c1F` is 6870 nM; for `CCN(CC)C(=S)SNCc1ccc(S(N)(=O)=O)cc1` it is 8390 nM.
Under `Cc1cc(F)c(C)c(NC(=O)NC(=S)Nc2ccc(S(N)(=O)=O)cc2)c1` stands 518 nM; under `NS(=O)(=O)c1ccccc1NC(=O)c1cc2ccccc2oc1=O`, 18500 nM.
On to `Cc1cc(Cl)cc(C)c1NC(=O)NC(=S)Nc1ccc(S(N)(=O)=O)cc1`, for which the Ki is 596 nM.
As to `NS(=O)(=O)c1ccc(NNC(=O)c2cc3ccccc3oc2=O)cc1`, the Ki is 4060 nM.
The figure for `CCN(CC)C(=S)SNc1ccc(S(N)(=O)=O)cc1` is 3000 nM; for `Cc1cc(NC(=O)NC(=S)Nc2ccc(S(N)(=O)=O)cc2)c(Cl)c(C)c1Cl` it is 514 nM.
As for `NS(=O)(=O)c1ccc(NC(=O)c2ccc(S(N)(=O)=O)cc2)cc1`, the inhibition constant (Ki) is 3050 nM.
Take `COc1cc(CC(=O)Nc2ccccc2S(N)(=O)=O)c2ccccc2c1Cl`: the inhibition constant (Ki) was determined as 4280 nM.
As to `CC(Cl)(Cl)c1ccc(NC(=O)NC(=S)Nc2ccc(S(N)(=O)=O)cc2)cc1`, the Ki worked out at 452 nM.
As for `NS(=O)(=O)c1ccccc1NC(=O)N(c1ccccc1)c1ccccc1`, the Ki stood at 1990 nM.
The figure for `NS(=O)(=O)c1ccc(CNC(=O)c2cc3ccccc3oc2=O)cc1` is 5050 nM.
As to `NS(=O)(=O)c1ccc(NC(=S)NC(=O)Nc2ccc(Cl)cc2)cc1`, the Ki amounted to 327 nM.
The figure for `NS(=O)(=O)c1ccc(Nc2ncsc2Cl)cc1` is 164 nM; for `NS(=O)(=O)c1ccc(Nc2cscn2)cc1` it is 237 nM.
Under `NS(=O)(=O)c1ccc(NC(=S)NC(=O)Nc2cccc(F)c2)cc1` stands 424 nM.
The figure for `NS(=O)(=O)c1ccc(CNC(=O)N(c2ccccc2)c2ccccc2)cc1` is 6030 nM; for `NS(=O)(=O)c1nnc(NS(=O)(=O)C(F)(F)C(F)(F)C(F)(F)C(F)(F)C(F)(F)C(F)(F)C(F)(F)C(F)(F)F)s1` it is 192 nM.
Consider `NS(=O)(=O)c1ccc(CCNC(=O)c2cc3ccccc3oc2=O)cc1`, for which the Ki is 13200 nM.
As for `COC(=O)NS(=O)(=O)c1ccc(NC(=S)Nc2ccc(S(N)(=O)=O)cc2)cc1`, the Ki stood at 4620 nM.
Consider `NS(=O)(=O)c1ccc(NC(=O)Nc2ccc(Cl)c(Cl)c2)cc1`, for which the Ki came to 5580 nM.
Under `NS(=O)(=O)c1ccc(NC(=S)NC(=O)Nc2ccc(Cl)c(Cl)c2)cc1` stands 180 nM; under `NC(=S)Nc1ccc(S(N)(=O)=O)cc1`, 2100 nM; under `NS(=O)(=O)c1ccc(NS(=O)(=O)c2ccc(NC(=O)N(c3ccccc3)c3ccccc3)cc2)cc1`, 16500 nM.
Under `NS(=O)(=O)c1nnc(NC(=O)c2c(F)c(F)c(F)c(F)c2F)s1` stands 3440 nM.
Under `NS(=O)(=O)c1ccc(NC(=S)NC(=O)Nc2ccc(CC(Cl)Cl)cc2)cc1` stands 756 nM.
Consider `Cc1ccc(C)c(N(C(=O)Nc2ccccc2S(N)(=O)=O)c2ccccc2)c1F`, for which the Ki worked out at 3320 nM.
The figure for `COc1ccc2oc(=O)cc(CC(=O)NNc3ccc(S(N)(=O)=O)cc3)c2c1` is 3510 nM; for `NS(=O)(=O)c1cc(S(N)(=O)=O)c(C(F)(F)F)cc1NC(=O)c1cc2ccccc2oc1=O` it is 9030 nM.
Under `NS(=O)(=O)c1ccc(Nc2nocc2Cl)cc1` stands 164 nM.
The figure for `NS(=O)(=O)c1ccc(/N=C/c2ccc(Br)c3ccccc23)cc1` is 4160 nM.
As for `COc1ccc2oc(=O)cc(CC(=O)c3cc(C(F)(F)F)c(S(N)(=O)=O)cc3S(N)(=O)=O)c2c1`, the Ki turned out to be 2520 nM.
`NS(=O)(=O)c1ccc(Nc2ncc(Cl)s2)cc1`: the Ki stood at 164 nM.
The figure for `Cc1ccc(NC(=O)NC(=S)Nc2ccc(S(N)(=O)=O)cc2)s1` is 505 nM; for `Cc1cc(C)cc(N(C(=O)Nc2ccccc2S(N)(=O)=O)c2ccccc2)c1` it is 4090 nM; for `NS(=O)(=O)c1nnc(NC(=S)NC(=O)Nc2ccccc2)s1` it is 6730 nM.
